Test results published in US20060013801A1, “Prevention of and therapy for radiation toxicity of normal tissues using drugs which block il-1 activity” (priority 2002, published 2006).
“Also recorded” adds a separate entry of the source.

Columns and labels:
[1] = test system: radiation (60 Gy) induced skin damage in MCa-35 mammary tumor-bearing mice; assay: Radiation induced skin damage by 5-scales Skin Scoring System; assay type: in vivo, C3H/HeN mice; settings: for mice with severe skin damage (grades 4-5): 20 days after radiation
Method: (§1) Isotransplantable murine MCa-35 mammary tumor cells was inoculated i.m. into right hind thighs of 6-7 week-old female C3H/HeN mice (NCI, Fredrick, Md.). […] Mice were sacrificed 20 days after radiation.
(§2) Four experiment groups were used. […] Group 1 was radiation alone; mice in group 2 were given 50 mg/kg Celebrex 2 hours before radiation (2 hr pre-radiation); mice in group 3 and 4 were received the same amount of Celebrex at day 2 or day 7 post-radiation. […] All mice were sacrificed 20 day after radiation.
Radiation induce skin damage was assessed using 5-scales Skin Scoring System. 20 days after single 60 Gy radiation, mice from each treatment group were determined blindly for the degree of skin damage by three investigators. Grade 1: normal skin; grade 2: slight hair loss in irradiated area; grade 3: radish and swollen tissue; grad 4: small area erosion; grade 5: small ulceration. Grades 2-3 is referred as mild, and grades 4-5 is considered as severe skin damage.

MIP-2 mRNA = assay: RNase protection assay, MIP-2 mRNA expression
MCP-1 mRNA = assay: RNase protection assay, MCP-1 mRNA expression; settings: 60 Gy
[2] = test system: MCa-35 tumor and overlaying skin; assay: Histology of irradiated skin and MCa-35 tumor; assay type: in vivo, C3H/HeN mice
Text: as §1
Tumors and the overlaying skin tissues were removed for histology and RNA preparation. Irradiated tissues (tumor and skin) were also collected for making paraffin blocks for immunohistochemical staining. Guidelines for the humane treatment of animals were followed as approved by the University of Rochester Committee on Animal Resources.
as §2
Immunohistochemistry methods have previously been described in detail. Immediately following cryostat sectioning, tissue slices (normal muscle and tumor) were stained with CD31 antibody (PharMingen Calif.) for determination of total vasculature. The stained sections were imaged using an epi-fluorescence equipped microscope, digitized (3-CCD camera), background-corrected, and image-analyzed using Image Pro software (Media Cybernetics, Mass.) and a 450 MHz Pentium computer. Color images from individual microscope fields were automatically acquired and digitally combined to form four montages of the tumor cross-section (total area=15.5 mm2) using a motorized stage and controller. The image montages were processed to enhance the contrast between background and CD31 staining. From the enhanced images, locations of CD31-stained vessels were recorded. The quantitative vascular information was analyzed using custom Fortran programs to perform a “closest individual” analysis as previously described. Briefly, the distances from computer-superimposed sampling points to the nearest blood vessel were determined. […]

[3] = test system: C-C and C-X-C chemokine receptors mRNA; assay: RNase protection assay, C-C and C-X-C chemokine receptor mRNA expression; assay type: in vivo, C3H/HeN mice
Method: as §1, §2
Total RNA was isolated from tumors and skin overlying tumors, respectively, with 9-10 mice in each treatment group by pulverizing the frozen tissue, and dissolved in TRI Reagent (Molecular Research Center, Ohio) according to the manufacturer's specifications.
Differences were considered significant for p<0.05.

Rantes mRNA = assay: RNase protection assay, Rantes mRNA expression; settings: 60 Gy, 50 mg/kg Celebrex, vs 7.4±1.6 control, P<0.05, ratio to GAPDH or L32 mRNA

## Cc1ccc(-c2cc(C(F)(F)F)nn2-c2ccc(S(N)(=O)=O)cc2)cc1 [Celebrex]
[1]; 50 mg/kg daily gavage, 15 doses in three weeks, single 60 Gy
  effect on radiation induced normal skin damage: significantly reduced; also recorded: less radiation-induced skin damage
[1]; 50 mg/kg gavage started 2 hr pre-radiation, 15 doses, single 60 Gy
  mice with severe skin damage (grades 4-5): 17.6%
[1]; 50 mg/kg gavage started day 2 post-radiation, 15 doses, single 60 Gy
  mice with severe skin damage (grades 4-5): 5.3%
[1]; 50 mg/kg gavage started day 7 post-radiation, 10 doses, single 60 Gy
  mice with severe skin damage (grades 4-5): 11.1%
[1]; 60 Gy, Celebrex-treated mice
  treated mice that still developed moderate or severe skin damage after radiation: 15-30%
MIP-2 mRNA; after Celebrex treatment, 37.5% of mice with radiation alone
  tumor skin with high MIP-2 mRNA expression: 14.3%-28.6%
MIP-2 mRNA; tumor tissue, 60 Gy
  effect on tumor MIP-2 mRNA: did not significantly alter
MCP-1 mRNA; irradiated skin, 50 mg/kg Celebrex, vs 18.8±3.2 control, p<0.05, ratio to GAPDH or L32 mRNA
  MCP-1 mRNA expression in irradiated skin tissues: 10.2±1.1
MCP-1 mRNA; tumor tissue
  reduction of MCP-1 mRNA expression in tumor tissues: not in tumor tissues
[2]; oral administration, compared with saline-treated controls
  effect on MCa-35 tumor histology (blood vessels, necrosis): reduction of blood vessels
[2]; pre- (2 hr) or post-radiation (day 2 or day 7) treatment, compared with saline-treated controls
  inflammation and inflammatory cell infiltration in the dermis: less inflammation and cellular component infiltration in the dermis; also recorded: less infiltration of inflammatory cells
[2]; tumor tissue, compared with saline controls
  infiltration of inflammatory cells in tumor tissue: not obviously altered
[3]; skin of Celebrex-treated mice with less radiation-induced skin damage
  CXCR4 mRNA expression: significantly reduced
[3]; tumor skin, 60 Gy, not in tumor tissues
  mRNA expression of both C-C and C-X-C chemokine receptors in tumor skin: decrease mRNA expression
Rantes mRNA
  Rantes mRNA expression in irradiated skin tissues: 2.3±1.1
